Where two headings read alike, the source gives them in different places.

The target in one assay is MEK1 (Homo sapiens, UniProt Q02750). Briefly: Kinome profiling MEK1. To be noted: read-out: Inhibitory activity MEK1; for inhibition at 0.1 µM: 100 nM. Format: biochemical. The protocol:
(§1) . The kinome-wide selectivity was determined following the methods previously reported by Mohedas et al., ACS Chem Biol 2013, 8, 1291-1302 and Sanvitale et al., PLoS One 2013, 8, e62721.

For another assay, the target named is MET (Homo sapiens, UniProt P08581). Description: Kinome profiling MET. Format: biochemical. To be noted: read-out: Inhibitory activity MET; for inhibition at 0.1 µM: 100 nM. The protocol:
as §1

For the next assay, the target named is T1, caALK3 (Homo sapiens, UniProt P36894, Q233D).
T1 construct: expressed in transfected cells; host or cells: C2C12 BRE-Luc cells infected with adenovirus (MOI 100)
Briefly: Luciferase reporter assay constitutively active ALK3. To be noted: read-out: Cell Based Assay caALK3 IC50. The text has this:
C2Cl2 […] cells stably transfected with BMP responsive element from the Id promoter fused to luciferase reporter gene (BRE-Luc) were generously provided by Dr. Peter ten Dijke (Leiden University Medical Center, NL) following the methods described by Zilberberg et al., BMC cell biology 2007, 8, 41-50. Human embryonic kidney 293T cells stably transfected with the TGF-β responsive element from the PAI-1 promoter fused to luciferase reporter gene (CAGA-Luc) were generously provided by Dr. Howard Weiner (Brigham and Women's Hospital, Boston, Mass.) following the methods described by Oida et al., PloS one 2011, 6, e18365. C2Cl2 Bre-Luc and 293T CAGA-Luc cells were seeded in DMEM supplemented with 2% FBS at 20,000 cells per well in tissue culture treated 96-well plates (Costar® 3610; Corning). The cells were incubated for 1 h (37° C. and 10% CO2) and allowed to settle and attach. Compounds of interest or DMSO were diluted in DMEM and added at final compound concentrations of 1 nM to 10 μM. Cells were then incubated for 30 min. Adenovirus expressing constitutively active BMP and TGF-β type I receptors (Ad.caALK1-5), generously provided by Dr. Akiko Hata (University of to California at San Francisco), were added to achieve a multiplicity of infection (MOI) of 100. Plates were incubated overnight at 37° C. Cell viability was assayed with an MIT (3-(4,5-dimethylthiazol-2-yl)-2,5-diphenyl tetrazolium bromide) colorimetric assay (Promega) per the manufacturer's instructions. Media was discarded, and firefly luciferase activity was measured (Promega) according to manufacturer's protocol. Light output was measured using a Spectramax L luminometer (Molecular Devices) with an integration time of one second per well. Data was normalized to 100% of incremental BRE-Luc activity due to adenoviruses specifying caALK1, 2, or 3, or the incremental CAGA-Luc activity due to adenoviruses specifying caALK4 or 5.
In general terms: In a reporter assay the amount or activity of a reporter protein is the signal.

Another assay addresses RSK3 (Homo sapiens, UniProt Q15349). Briefly: Kinome profiling RSK3. In kind it is biochemical. To be noted: read-out: Inhibitory activity RSK3; for inhibition at 0.1 µM: 100 nM. The protocol: as §1
In the next assay the target is IGF1R (Homo sapiens, UniProt P08069). Briefly: Kinome profiling IGF1R. To be noted: read-out: Inhibitory activity IGF1R; for inhibition at 0.1 µM: 100 nM. Format: biochemical. The protocol: as §1
A further assay deals with PKC-θ (Homo sapiens, UniProt Q04759). Description: Kinome profiling PKC-θ. In kind it is biochemical. To be noted: read-out: Inhibitory activity PKC-θ; for inhibition at 0.1 µM: 100 nM. The protocol:
as §1

The target in the next assay is T2, MAP4K2 (Homo sapiens, UniProt Q12851).
T2 sequence (Q12851 1-820): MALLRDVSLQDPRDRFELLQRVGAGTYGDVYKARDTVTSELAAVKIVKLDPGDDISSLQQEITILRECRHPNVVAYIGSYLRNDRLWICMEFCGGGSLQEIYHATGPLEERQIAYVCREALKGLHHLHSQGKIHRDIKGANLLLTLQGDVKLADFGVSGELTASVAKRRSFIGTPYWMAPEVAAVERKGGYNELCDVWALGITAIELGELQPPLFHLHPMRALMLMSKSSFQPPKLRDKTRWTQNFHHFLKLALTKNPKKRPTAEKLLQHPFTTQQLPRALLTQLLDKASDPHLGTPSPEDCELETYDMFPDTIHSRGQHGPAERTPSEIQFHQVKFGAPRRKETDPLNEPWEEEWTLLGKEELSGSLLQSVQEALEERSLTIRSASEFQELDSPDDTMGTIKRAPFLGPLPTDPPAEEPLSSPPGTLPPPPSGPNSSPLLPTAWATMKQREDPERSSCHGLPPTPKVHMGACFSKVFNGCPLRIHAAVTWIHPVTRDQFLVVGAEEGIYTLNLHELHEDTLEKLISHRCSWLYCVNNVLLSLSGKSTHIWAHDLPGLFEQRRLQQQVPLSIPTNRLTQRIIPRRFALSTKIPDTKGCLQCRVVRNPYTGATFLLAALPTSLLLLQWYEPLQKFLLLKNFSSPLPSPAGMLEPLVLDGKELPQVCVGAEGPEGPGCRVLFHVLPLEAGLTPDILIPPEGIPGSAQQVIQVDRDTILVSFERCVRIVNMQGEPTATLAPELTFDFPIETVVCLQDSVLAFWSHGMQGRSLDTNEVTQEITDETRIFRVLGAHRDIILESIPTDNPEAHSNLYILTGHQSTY
Description: Kinome profiling MAP4K2. In kind it is biochemical. To be noted: for inhibition at 0.1 µM: 100 nM. The protocol: as §1

The mark [1] stands for this setting: read-out: Inhibitory activity MAP4K2.
Where [2] appears, read: Table 4, read-out: Inhibitory Activity MAP4K2.

Sequence of PKC-θ (Q04759 whole entry): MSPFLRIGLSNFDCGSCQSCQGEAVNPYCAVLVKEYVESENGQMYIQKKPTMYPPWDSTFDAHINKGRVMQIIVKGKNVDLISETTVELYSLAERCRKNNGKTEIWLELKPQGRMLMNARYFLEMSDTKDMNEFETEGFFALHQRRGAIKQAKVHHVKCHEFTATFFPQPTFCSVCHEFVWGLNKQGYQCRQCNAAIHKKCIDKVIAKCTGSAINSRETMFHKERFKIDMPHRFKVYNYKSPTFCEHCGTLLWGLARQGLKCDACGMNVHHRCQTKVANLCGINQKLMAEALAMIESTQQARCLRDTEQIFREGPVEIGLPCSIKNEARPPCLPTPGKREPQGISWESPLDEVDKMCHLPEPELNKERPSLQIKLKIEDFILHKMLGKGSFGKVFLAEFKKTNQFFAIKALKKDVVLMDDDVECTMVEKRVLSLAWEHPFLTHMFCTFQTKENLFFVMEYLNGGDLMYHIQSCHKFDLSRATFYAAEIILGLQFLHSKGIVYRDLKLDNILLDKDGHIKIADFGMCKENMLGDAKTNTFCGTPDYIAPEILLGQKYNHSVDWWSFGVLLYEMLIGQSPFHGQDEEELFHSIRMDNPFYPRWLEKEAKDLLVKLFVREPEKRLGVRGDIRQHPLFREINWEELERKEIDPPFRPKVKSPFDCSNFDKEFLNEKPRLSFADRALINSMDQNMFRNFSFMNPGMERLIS
Sequence of IGF1R (P08069 31-1367): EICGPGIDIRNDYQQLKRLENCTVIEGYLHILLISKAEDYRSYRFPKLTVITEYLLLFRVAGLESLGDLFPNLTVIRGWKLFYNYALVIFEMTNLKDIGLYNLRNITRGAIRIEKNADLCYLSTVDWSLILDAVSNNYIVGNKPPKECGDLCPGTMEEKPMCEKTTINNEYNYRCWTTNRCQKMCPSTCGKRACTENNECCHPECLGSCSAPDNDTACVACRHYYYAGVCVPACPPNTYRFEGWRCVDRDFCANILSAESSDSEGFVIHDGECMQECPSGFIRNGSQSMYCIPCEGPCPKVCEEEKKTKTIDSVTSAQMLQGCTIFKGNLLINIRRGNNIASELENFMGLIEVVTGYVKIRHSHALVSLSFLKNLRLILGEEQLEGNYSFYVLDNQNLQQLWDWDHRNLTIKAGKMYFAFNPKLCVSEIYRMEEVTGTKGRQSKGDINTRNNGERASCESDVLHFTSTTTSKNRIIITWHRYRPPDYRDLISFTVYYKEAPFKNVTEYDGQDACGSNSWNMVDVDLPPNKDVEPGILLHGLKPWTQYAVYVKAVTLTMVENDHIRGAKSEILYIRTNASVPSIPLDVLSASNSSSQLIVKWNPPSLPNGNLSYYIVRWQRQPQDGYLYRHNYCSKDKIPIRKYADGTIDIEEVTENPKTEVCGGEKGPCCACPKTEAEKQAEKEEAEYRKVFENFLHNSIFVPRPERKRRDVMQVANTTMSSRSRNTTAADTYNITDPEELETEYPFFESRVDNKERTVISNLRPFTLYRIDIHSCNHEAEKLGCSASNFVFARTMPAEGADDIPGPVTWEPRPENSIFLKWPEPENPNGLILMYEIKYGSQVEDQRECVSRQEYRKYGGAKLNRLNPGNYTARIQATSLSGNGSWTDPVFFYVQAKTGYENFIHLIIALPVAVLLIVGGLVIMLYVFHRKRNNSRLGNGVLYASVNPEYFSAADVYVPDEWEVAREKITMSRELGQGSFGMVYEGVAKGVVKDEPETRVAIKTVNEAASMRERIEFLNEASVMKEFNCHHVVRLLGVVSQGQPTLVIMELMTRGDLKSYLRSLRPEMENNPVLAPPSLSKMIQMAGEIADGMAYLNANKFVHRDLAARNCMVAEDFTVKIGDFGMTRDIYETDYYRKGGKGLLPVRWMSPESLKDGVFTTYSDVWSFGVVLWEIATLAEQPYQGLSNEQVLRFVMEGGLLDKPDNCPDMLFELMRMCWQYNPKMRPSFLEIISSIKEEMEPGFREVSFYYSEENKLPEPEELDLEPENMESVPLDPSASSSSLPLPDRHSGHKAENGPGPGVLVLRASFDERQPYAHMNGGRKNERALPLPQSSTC
Sequence of MEK1 (Q02750 whole entry): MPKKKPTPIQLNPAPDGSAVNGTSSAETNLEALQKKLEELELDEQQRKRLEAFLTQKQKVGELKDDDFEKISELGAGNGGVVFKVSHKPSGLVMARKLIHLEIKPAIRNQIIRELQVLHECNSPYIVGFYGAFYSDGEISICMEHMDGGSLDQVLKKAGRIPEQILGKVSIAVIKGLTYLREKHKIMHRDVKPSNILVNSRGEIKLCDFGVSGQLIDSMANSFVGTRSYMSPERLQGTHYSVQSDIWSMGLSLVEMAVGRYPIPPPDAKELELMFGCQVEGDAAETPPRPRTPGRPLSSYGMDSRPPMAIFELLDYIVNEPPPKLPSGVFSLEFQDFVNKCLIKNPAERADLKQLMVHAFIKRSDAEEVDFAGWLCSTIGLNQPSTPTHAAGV
Sequence of MET (P08581 25-1390): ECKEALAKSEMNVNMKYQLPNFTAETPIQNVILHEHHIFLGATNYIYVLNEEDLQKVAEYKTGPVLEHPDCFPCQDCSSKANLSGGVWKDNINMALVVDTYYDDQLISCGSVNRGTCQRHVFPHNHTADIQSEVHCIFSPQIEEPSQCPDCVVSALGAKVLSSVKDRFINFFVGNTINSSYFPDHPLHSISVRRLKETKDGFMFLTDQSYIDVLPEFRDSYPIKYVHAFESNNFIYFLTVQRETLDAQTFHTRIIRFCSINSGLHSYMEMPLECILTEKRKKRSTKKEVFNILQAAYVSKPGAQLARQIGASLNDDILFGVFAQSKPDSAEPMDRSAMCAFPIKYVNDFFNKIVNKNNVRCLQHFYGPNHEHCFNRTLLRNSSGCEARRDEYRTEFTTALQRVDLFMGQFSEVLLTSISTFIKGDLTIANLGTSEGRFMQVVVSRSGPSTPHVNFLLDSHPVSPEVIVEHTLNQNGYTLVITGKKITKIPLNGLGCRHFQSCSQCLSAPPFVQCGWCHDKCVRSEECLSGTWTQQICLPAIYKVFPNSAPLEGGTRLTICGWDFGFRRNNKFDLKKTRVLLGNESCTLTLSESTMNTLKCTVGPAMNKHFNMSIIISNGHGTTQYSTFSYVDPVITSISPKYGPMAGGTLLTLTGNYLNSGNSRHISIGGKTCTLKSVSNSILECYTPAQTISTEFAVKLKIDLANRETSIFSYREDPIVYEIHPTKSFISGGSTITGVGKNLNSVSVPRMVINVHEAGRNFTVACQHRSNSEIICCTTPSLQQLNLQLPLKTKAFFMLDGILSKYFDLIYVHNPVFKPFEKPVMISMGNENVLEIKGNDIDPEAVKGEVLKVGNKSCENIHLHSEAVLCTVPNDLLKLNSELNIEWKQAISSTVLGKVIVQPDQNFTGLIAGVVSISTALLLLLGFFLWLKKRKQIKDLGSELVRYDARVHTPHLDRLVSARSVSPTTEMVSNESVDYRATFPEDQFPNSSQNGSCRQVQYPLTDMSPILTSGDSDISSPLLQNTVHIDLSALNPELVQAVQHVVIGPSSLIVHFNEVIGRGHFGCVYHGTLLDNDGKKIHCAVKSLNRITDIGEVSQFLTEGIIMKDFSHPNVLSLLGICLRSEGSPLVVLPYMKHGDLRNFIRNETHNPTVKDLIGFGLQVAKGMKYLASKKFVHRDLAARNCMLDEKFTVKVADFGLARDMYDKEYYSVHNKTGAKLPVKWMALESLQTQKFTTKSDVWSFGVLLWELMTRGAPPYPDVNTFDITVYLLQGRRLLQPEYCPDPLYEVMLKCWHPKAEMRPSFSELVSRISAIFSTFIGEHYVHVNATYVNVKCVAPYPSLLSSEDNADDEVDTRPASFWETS
Sequence of RSK3 (Q15349 whole entry): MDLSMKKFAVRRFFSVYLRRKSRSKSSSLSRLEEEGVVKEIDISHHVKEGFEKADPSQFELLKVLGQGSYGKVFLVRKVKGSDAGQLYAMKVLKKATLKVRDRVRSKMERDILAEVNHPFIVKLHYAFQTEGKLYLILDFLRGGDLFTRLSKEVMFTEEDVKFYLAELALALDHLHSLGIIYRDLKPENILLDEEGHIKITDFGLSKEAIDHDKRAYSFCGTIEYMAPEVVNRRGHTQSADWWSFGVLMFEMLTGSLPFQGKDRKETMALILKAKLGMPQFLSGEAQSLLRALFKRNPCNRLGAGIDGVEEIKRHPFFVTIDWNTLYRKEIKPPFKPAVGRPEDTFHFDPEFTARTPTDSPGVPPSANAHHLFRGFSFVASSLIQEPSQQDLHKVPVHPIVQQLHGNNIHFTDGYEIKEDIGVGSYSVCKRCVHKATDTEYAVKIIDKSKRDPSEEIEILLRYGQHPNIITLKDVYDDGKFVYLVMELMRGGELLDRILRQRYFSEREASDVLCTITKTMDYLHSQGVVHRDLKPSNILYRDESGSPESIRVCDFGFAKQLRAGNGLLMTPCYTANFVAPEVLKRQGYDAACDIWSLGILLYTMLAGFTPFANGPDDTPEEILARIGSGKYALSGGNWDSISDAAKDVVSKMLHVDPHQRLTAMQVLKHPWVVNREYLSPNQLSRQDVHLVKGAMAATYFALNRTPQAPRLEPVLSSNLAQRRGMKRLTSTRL
T1 sequence (P36894 24-532 Q233D): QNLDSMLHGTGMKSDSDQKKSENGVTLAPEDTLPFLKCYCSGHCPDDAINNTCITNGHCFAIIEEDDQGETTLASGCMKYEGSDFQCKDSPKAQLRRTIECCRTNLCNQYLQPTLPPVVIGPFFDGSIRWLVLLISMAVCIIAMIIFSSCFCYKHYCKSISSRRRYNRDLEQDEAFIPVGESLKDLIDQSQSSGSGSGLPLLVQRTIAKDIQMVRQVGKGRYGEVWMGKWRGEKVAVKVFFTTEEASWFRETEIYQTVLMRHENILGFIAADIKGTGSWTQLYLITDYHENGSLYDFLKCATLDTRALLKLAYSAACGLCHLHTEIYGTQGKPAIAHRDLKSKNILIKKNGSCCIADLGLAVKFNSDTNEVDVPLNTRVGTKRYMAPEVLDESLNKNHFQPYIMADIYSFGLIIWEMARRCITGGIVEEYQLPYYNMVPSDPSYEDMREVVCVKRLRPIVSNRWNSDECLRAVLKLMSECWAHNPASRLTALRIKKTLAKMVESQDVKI

For the compound `COc1cc(-c2cc(-c3ccc(N4CCNCC4)cc3)cnc2N)cc(OC)c1OC` [Compound 15, 5-(4-(piperazin-1-yl)phenyl)-3-(3,4,5-trimethoxyphenyl)pyridin-2-amine], the inhibition at 0.1 µM amounted to 3% on MEK1; 7% on MET; 2% at RSK3; 2% at IGF1R; 1% at PKC-θ; 36% at MAP4K2 (setting [1]). The inhibition at 1 µM amounted to 6% at MEK1; 21% on MET; 3% on RSK3; 4% on IGF1R; 1% at PKC-θ; 77% on MAP4K2 (setting [1]). The IC50 at caALK3 is 8 nM.

Consider `COc1cc(-c2cc(-c3ccc(N4CCNCC4)cc3)cnc2C)cc(OC)c1OC` [Compound 10, 1-(4-(6-methyl-5-(3,4,5-trimethoxyphenyl)pyridin-3-yl)phenyl)piperazine], for which the inhibition at 0.1 µM on MEK1 was 0%; at MET, -1%; at RSK3, 3%; at IGF1R it was 0%; at PKC-θ it was 1%; on MAP4K2 (setting [2]), 16%. The inhibition at 0.1 µM at MAP4K2 (setting [1]) was 16%. Moreover, the inhibition at 1 µM at MEK1 turned out to be 2%; on MET it was 2%; at RSK3, 3%; at IGF1R, 0%; at PKC-θ, 2%; at MAP4K2 (setting [2]) it was 61%. Further, the inhibition at 1 µM on MAP4K2 (setting [1]) was 61%. Moreover, the IC50 on caALK3 was 382 nM.

What is called IC50 is the concentration at which inhibition is half-maximal.
